Test systems include NCI-H522 lung; MDA-N; OVCAR-8 ovarian; HCC-2998 colon; EKVX NSCLC; RXF 393 renal; NCI/ADR-RES ovarian; HL-60(TB) leukemia; K-562 leukemia; NCI-H226 lung; U251 CNS; OVCAR-5 ovarian; HT29 colon; SK-MEL-28 melanoma; TK-10 renal; PC-3 prostate; NCI-H23 lung; ACHN renal; CAKI-1 renal; SNB-75 CNS.
Test in all cases: growth of human tumour cells (NCI), 48 h

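How tested: cells in 96-well plates exposed to compound for 48 hours at five concentrations. Definition used: TGI = concentration required for complete inhibition of growth.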

Consider twelve compounds from PubChem BioAssay (NCI).

For the compound `COC(=O)c1c(C)c2c(c(C)c1O)OC(=O)c1c(C)cc(O)c(C=O)c1O2`, the TGI in the test with NCI-H522 lung, in the test on MDA-N, in the test on OVCAR-8 ovarian, with HCC-2998 colon, with EKVX NSCLC and with RXF 393 renal was more than 100 µM throughout. The TGI with NCI/ADR-RES ovarian, with HL-60(TB) leukemia, with K-562 leukemia, with NCI-H226 lung, in the test with U251 CNS and in the test with OVCAR-5 ovarian was more than 100 µM each time. Moreover, the TGI in the test on HT29 colon, in the test with SK-MEL-28 melanoma, in the test on TK-10 renal, in the test on PC-3 prostate, in the test on NCI-H23 lung and in the test with ACHN renal was more than 100 µM in each case.
Regarding `Clc1nc(NC23CC4CC(CC(C4)C2)C3)nc(NC23CC4CC(CC(C4)C2)C3)n1`, the TGI is more than 100 µM with MDA-N; more than 100 µM in the test with OVCAR-8 ovarian; more than 100 µM in the test on HCC-2998 colon; more than 100 µM with EKVX NSCLC; more than 100 µM in the test on CAKI-1 renal; more than 80.2 µM with RXF 393 renal. Moreover, the TGI in the test with NCI/ADR-RES ovarian was more than 100 µM; with HL-60(TB) leukemia it was 87.5 µM; in the test on K-562 leukemia, 47 µM; with NCI-H226 lung it was more than 100 µM; in the test with U251 CNS, more than 69 µM; in the test on OVCAR-5 ovarian, more than 100 µM. Besides, the TGI was more than 100 µM in the test with HT29 colon; more than 100 µM with SK-MEL-28 melanoma; more than 100 µM with TK-10 renal; more than 40.6 µM with PC-3 prostate; more than 100 µM in the test with NCI-H23 lung; more than 100 µM with ACHN renal. The compound also returned a TGI with SNB-75 CNS of more than 78 µM.
Consider `COc1ccc(-c2c(C#N)c(N)nc(Sc3ccccc3N)c2C#N)cc1`, for which the TGI is 62.5 µM in the test on NCI-H522 lung; more than 100 µM with MDA-N; 45.7 µM in the test with OVCAR-8 ovarian; more than 100 µM in the test with HCC-2998 colon; more than 100 µM in the test on EKVX NSCLC; more than 65.9 µM in the test on CAKI-1 renal. The TGI in the test with RXF 393 renal was 30.1 µM; in the test on NCI/ADR-RES ovarian, 98.4 µM; in the test on HL-60(TB) leukemia it was more than 100 µM; with K-562 leukemia it was more than 100 µM; in the test on NCI-H226 lung, more than 100 µM; in the test with U251 CNS it was 61 µM. Moreover, the TGI in the test on OVCAR-5 ovarian was more than 100 µM; with HT29 colon, more than 100 µM; in the test on SK-MEL-28 melanoma, more than 100 µM; in the test on TK-10 renal it was 46 µM; in the test with PC-3 prostate it was more than 55.6 µM; in the test with NCI-H23 lung, more than 100 µM. In the test on ACHN renal, this compound yielded a TGI of 51.4 µM.
As for `CC1(c2cccc(C(F)(F)F)c2)CC(c2cccc(C(F)(F)F)c2)=C(C#N)C(=C(C#N)C#N)N1` (stereo not given), the TGI in the test on MDA-N was found to be 33.6 µM; in the test on OVCAR-8 ovarian, 40.2 µM; in the test on HCC-2998 colon it was 31.8 µM; with EKVX NSCLC, 34 µM; in the test with CAKI-1 renal it was 33.3 µM; in the test with RXF 393 renal it was 31.4 µM. Further, the TGI in the test on NCI/ADR-RES ovarian worked out at 43 µM; in the test with HL-60(TB) leukemia, 35.1 µM; with K-562 leukemia, 34.2 µM; with NCI-H226 lung it was 58.6 µM; in the test on U251 CNS, 35 µM; in the test on OVCAR-5 ovarian, 32.8 µM. The TGI with HT29 colon came to 36.2 µM; with SK-MEL-28 melanoma, 33.9 µM; with TK-10 renal it was 30.8 µM; with PC-3 prostate it was 34.7 µM; with NCI-H23 lung, 38.2 µM; with ACHN renal, 31 µM. In addition, the TGI with SNB-75 CNS was 33.6 µM.
Take `COc1ccc2c(c1)C1Oc3ccccc3CC1CO2` (stereo not given): the TGI in the test with NCI-H522 lung was more than 100 µM; in the test with MDA-N, more than 100 µM; in the test with OVCAR-8 ovarian, more than 100 µM; in the test with HCC-2998 colon it was 42.7 µM; with EKVX NSCLC, more than 100 µM; with CAKI-1 renal it was more than 100 µM. In addition, the TGI was 88.9 µM in the test with RXF 393 renal; more than 100 µM in the test on NCI/ADR-RES ovarian; 50 µM with HL-60(TB) leukemia; more than 100 µM with K-562 leukemia; more than 100 µM with NCI-H226 lung; more than 100 µM in the test on U251 CNS. Besides, the TGI with OVCAR-5 ovarian, in the test on HT29 colon, in the test with TK-10 renal, in the test with PC-3 prostate, in the test on NCI-H23 lung and in the test on ACHN renal was more than 100 µM each time. In the test with SNB-75 CNS, this compound had a TGI of 98.7 µM.
With `C1=C(c2ccccc2)NC2=N[C@H]3CCCC[C@@H]3N2C1c1ccccc1` (stereo not given in full), the TGI with MDA-N came out at 29 µM; in the test on OVCAR-8 ovarian it was 27.4 µM; with HCC-2998 colon, 28.4 µM; in the test with EKVX NSCLC it was 29.3 µM; in the test on CAKI-1 renal it was 29.6 µM; with NCI/ADR-RES ovarian it was 28.7 µM. The TGI in the test on HL-60(TB) leukemia turned out to be 42.2 µM; in the test with K-562 leukemia, 72.2 µM; in the test on NCI-H226 lung, 28.9 µM; in the test with U251 CNS, 26.1 µM; in the test on OVCAR-5 ovarian, 26.3 µM; in the test with HT29 colon, 14.8 µM. The TGI in the test on SK-MEL-28 melanoma was found to be 27.4 µM; with TK-10 renal, 22.1 µM; in the test with PC-3 prostate, 23.9 µM; with NCI-H23 lung, 25.8 µM; with ACHN renal, 26.6 µM; with SNB-75 CNS it was 24.3 µM.
In the case of `COC(=O)C1=CCC[C@H]2[C@@]1(COC(C)=O)CC[C@@H](C)[C@]2(C)CC(=O)c1ccoc1`, the TGI in the test on NCI-H522 lung is 22 µM; with MDA-N it was more than 50 µM; in the test on OVCAR-8 ovarian, more than 50 µM; in the test on HCC-2998 colon it was 37.5 µM; in the test with EKVX NSCLC, more than 50 µM; in the test on CAKI-1 renal, more than 50 µM. Further, the TGI with RXF 393 renal was more than 50 µM; in the test with NCI/ADR-RES ovarian, more than 50 µM; in the test with HL-60(TB) leukemia, 24.5 µM; in the test on NCI-H226 lung it was more than 50 µM; in the test on U251 CNS, more than 50 µM; in the test on OVCAR-5 ovarian, more than 50 µM. For the same compound, the TGI was more than 50 µM with HT29 colon; more than 50 µM with TK-10 renal; more than 50 µM in the test with PC-3 prostate; 47.2 µM with NCI-H23 lung; more than 50 µM in the test with ACHN renal; more than 50 µM with SNB-75 CNS.
`NC(=S)N/N=C1\CCc2ccccc2C1`: the TGI in the test on NCI-H522 lung, in the test on MDA-N, in the test on OVCAR-8 ovarian, in the test with HCC-2998 colon, in the test with EKVX NSCLC and with RXF 393 renal was more than 100 µM in each case. Besides, the TGI in the test on NCI/ADR-RES ovarian, in the test with HL-60(TB) leukemia, in the test with K-562 leukemia, in the test with NCI-H226 lung, with U251 CNS and in the test on OVCAR-5 ovarian was more than 100 µM in each case. Further, the TGI with HT29 colon, in the test on SK-MEL-28 melanoma, in the test on TK-10 renal, with PC-3 prostate, in the test with NCI-H23 lung and in the test with ACHN renal was more than 100 µM each time.
Take `CC1=NN(c2ccccc2Cl)C2(C1)C(Cl)C(=O)N2c1nc2ccccc2s1` (stereo not given): the TGI with NCI-H522 lung was 35 µM; in the test with MDA-N it was more than 100 µM; with OVCAR-8 ovarian, more than 100 µM; with HCC-2998 colon, more than 100 µM; with EKVX NSCLC, more than 100 µM; in the test on CAKI-1 renal, more than 100 µM. The TGI was more than 100 µM with RXF 393 renal; more than 100 µM in the test on NCI/ADR-RES ovarian; 60.6 µM in the test with HL-60(TB) leukemia; more than 100 µM with K-562 leukemia; more than 100 µM in the test with NCI-H226 lung; 76.5 µM in the test on U251 CNS. Also, the TGI in the test with OVCAR-5 ovarian, in the test on HT29 colon, with TK-10 renal, in the test with PC-3 prostate, in the test on NCI-H23 lung and with ACHN renal was more than 100 µM throughout. Moreover, in the test on SNB-75 CNS, the TGI came out at 89.9 µM.
As to `c1ccc(Nc2nnc(-c3ccccc3Nc3ccccc3-c3nnc(Nc4ccccc4)s3)s2)cc1`, the TGI in the test with NCI-H522 lung, in the test on MDA-N, with OVCAR-8 ovarian, with HCC-2998 colon, in the test on EKVX NSCLC and with RXF 393 renal was more than 100 µM in each case. For the same compound, the TGI with NCI/ADR-RES ovarian, in the test with HL-60(TB) leukemia, in the test with K-562 leukemia, in the test on NCI-H226 lung, with U251 CNS and with OVCAR-5 ovarian was more than 100 µM in each case. The TGI in the test on HT29 colon, with SK-MEL-28 melanoma, with TK-10 renal, in the test on PC-3 prostate, with NCI-H23 lung and in the test with ACHN renal was more than 100 µM each time. Besides, in the test with SNB-75 CNS, the TGI is more than 100 µM.
For the compound `CCOC(=O)C1Cc2ccc(C)cc2C1=O` (stereo not given), the TGI in the test with MDA-N, in the test on OVCAR-8 ovarian, in the test with HCC-2998 colon, with EKVX NSCLC, with CAKI-1 renal and in the test with NCI/ADR-RES ovarian was more than 100 µM each time. In addition, the TGI was 69.9 µM in the test with HL-60(TB) leukemia; more than 100 µM in the test with K-562 leukemia; more than 100 µM in the test on NCI-H226 lung; more than 100 µM in the test on U251 CNS; more than 100 µM in the test on OVCAR-5 ovarian; more than 100 µM in the test with HT29 colon. Also, the TGI in the test on SK-MEL-28 melanoma, in the test with TK-10 renal, in the test with PC-3 prostate, in the test with NCI-H23 lung, with ACHN renal and with SNB-75 CNS was more than 100 µM in each case.
As for `O=C(Cn1c(C(=O)/C=C/c2ccc(Cl)c(Cl)c2)nc2ccccc21)c1ccccc1`, the TGI was 47.2 µM in the test on MDA-N; 35.8 µM in the test on HCC-2998 colon; 42.8 µM in the test on EKVX NSCLC; 57.2 µM in the test on RXF 393 renal; 73 µM in the test on NCI/ADR-RES ovarian; 36.7 µM in the test with HL-60(TB) leukemia. For the same compound, the TGI is more than 100 µM with K-562 leukemia; more than 100 µM in the test on NCI-H226 lung; more than 100 µM in the test on U251 CNS; 50.2 µM in the test with OVCAR-5 ovarian; 45.5 µM with HT29 colon; more than 100 µM with SK-MEL-28 melanoma. The TGI with TK-10 renal is 76.6 µM; in the test with PC-3 prostate, more than 100 µM; with NCI-H23 lung it was more than 100 µM; with ACHN renal it was 93.5 µM.
